Laboratory results as given in BigSolDB 2.1.

With C=CC(=O)N1CCC[C@@H](n2nc(-c3ccc(Oc4ccccc4)cc3)c3c(N)ncnc32)C1 the solubility (mole fraction) (in ethanol, 298.15 K) was 0.00312, the solubility (mole fraction) (in ethanol, 303.15 K) was 0.00356 and the solubility (mole fraction) (in ethanol, 308.15 K) was 0.00396. The solubility (mole fraction) (in ethanol, 313.15 K) was 0.00447, the solubility (mole fraction) (in ethanol, 323.15 K) was 0.00551 and the solubility (mole fraction) (in water, 298.15 K) was 1.42e-07. For the same compound, the solubility (mole fraction) (in water, 303.15 K) was 2.22e-07, the solubility (mole fraction) (in water, 308.15 K) was 3.12e-07 and the solubility (mole fraction) (in water, 313.15 K) was 4.29e-07. The solubility (mole fraction) (in water, 323.15 K) was 7.77e-07.
